# Values quoted from earlier work, collected in US20190375786A1, “STABLE PEPTIDES AND METHODS OF USE THEREOF” (Fred Hutchinson Cancer Research Center, priority 2016, published 2019).
# Positions of bridges follow the written chain, without caps; N, C: chain ends. Residues, ends and D or L forms follow the SMILES beside them.
# Conditions: oral administration; cited from earlier work
structure (smiles),measurement,value
"C[C@@H]1NC(=O)[C@@H]2CCCN2C(=O)[C@H](CC(N)=O)NC(=O)[C@@H]2CSSC[C@H](N)C(=O)N[C@H]3CSSC[C@H](NC1=O)C(=O)N[C@@H]([C@@H](C)O)C(=O)NCC(=O)N[C@H](C(=O)N[C@@H](Cc1ccc(O)cc1)C(=O)O)CSSC[C@H](NC(=O)[C@H](Cc1ccc(O)cc1)NC(=O)[C@H](CCC(=O)O)NC3=O)C(=O)N2 [linaclotide] (H-CCEYCCNPACTGCY-OH; disulfide 1-6, 2-10, 5-13)",systemic absorption into the plasma,not significantly systemically absorbed
